# From patent US9115140B2, “Thienopyrimidine derivatives, processes for the preparation thereof and therapeutic uses thereof” (SANOFI, priority 2012, dated 2015)
# Columns and labels:
# [1] = target: GST-Alk protein (wild-type form 1058-1620) (Homo sapiens (Human), UniProt Q9UM73); assay: HTRF kinase test with GST-Alk protein, wild-type form (ATP 400 microM, enzyme 2 nM); format: biochemical; conditions: GST-Alk wild-type form 1058-1620, ATP 400 microM
# [2] = target: GST-Alk protein (mutant L1196M 1058-1620) (Homo sapiens (Human), UniProt Q9UM73, L1196M); assay: HTRF kinase test with GST-Alk protein, mutant L1196M (ATP 200 microM, enzyme 1 nM); format: biochemical; conditions: GST-Alk mutant L1196M 1058-1620, ATP 200 microM
# Sequence of GST-Alk protein (mutant L1196M 1058-1620) (Q9UM73 1058-1620 L1196M): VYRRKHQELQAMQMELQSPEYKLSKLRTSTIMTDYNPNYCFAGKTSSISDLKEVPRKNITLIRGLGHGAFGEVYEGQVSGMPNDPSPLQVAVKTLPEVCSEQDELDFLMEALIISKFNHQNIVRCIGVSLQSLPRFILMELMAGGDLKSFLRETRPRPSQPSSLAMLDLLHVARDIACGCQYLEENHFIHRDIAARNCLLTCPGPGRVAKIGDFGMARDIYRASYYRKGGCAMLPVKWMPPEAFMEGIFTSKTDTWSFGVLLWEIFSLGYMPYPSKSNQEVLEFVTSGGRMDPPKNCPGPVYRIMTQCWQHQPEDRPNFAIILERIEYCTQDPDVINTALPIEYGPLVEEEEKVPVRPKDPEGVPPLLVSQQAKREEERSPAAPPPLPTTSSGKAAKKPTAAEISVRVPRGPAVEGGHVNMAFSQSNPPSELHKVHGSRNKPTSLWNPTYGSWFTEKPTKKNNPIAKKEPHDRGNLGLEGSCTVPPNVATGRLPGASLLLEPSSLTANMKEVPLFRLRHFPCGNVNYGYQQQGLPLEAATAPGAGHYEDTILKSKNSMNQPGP
# Sequence of GST-Alk protein (wild-type form 1058-1620) (Q9UM73 1058-1620): as the sequence (Q9UM73 1058-1620 L1196M) above, with M139L counted along it
smiles,measurement,setting,value
"COc1nc(C)ccc1-c1c(CO)sc2cnc(Nc3cc(C)c(N4CCN(C)CC4)cc3OC(C)C)nc12 [Compound I-191, [7-(2-Methoxy-6-methylpyridin-3-yl)-2-{[5-methyl-4-(4-methylpiperazin-1-yl)-2-(propan-2-yloxy)phenyl]amino}thieno[3,2-d]pyrimidin-6-yl]methanol]",IC50,[1],12 nM
same,IC50,[2],14 nM
